Molecular target: T1, Human transthyretin (TTR) (Homo sapiens, UniProt P02766)
T1 construct: purchased SCIPAC (Sittingbourne, Kent, UK) P171-1
Test: Co-crystallisation of TTR-ligand complex, X-ray hit confirmation
Format: binding
Conditions: fragment seen in ligand-omitted difference density at >= 2σ in one or both binding sites; full or partial density
Protocol: Crystals were grown by vapor diffusion using a published crystallisation cocktail (100 mM HEPES pH 7.5, 200 mM CaCl2, 28% v/v PEG400) at 21 °C [29]. The hanging drop contained 1 μL of crystallisation cocktail, 1 μL of diluted ligand and 1 μL of TTR protein solution (85 μM). […] Crystals were harvested and flash cooled in a N2 cryostream or dipped into liquid ethane without cryoprotectant. Data was collected at Diamond Light Source (Oxon, UK) beamline I24, I04 or I04-1 (Pilatus 6M or ADSC Q315) or the European Synchrotron Radiation Facility (ESRF, Grenoble, France) beamline ID29 (Pilatus 6M-F) or in-house (Bruker X8 Diffractometer with APEXII CCD detector). Crystal unit cell was initially indexed by software MOSFLM [30] and LABELIT [31] within the EDNA [32] automatic data processing workflow. Diffraction image integration was performed by XDS [33] and reflection intensities were scaled by SCALA [34] or by PROTEUM2 if collected in-house. Phases were obtained by molecular replacement method using PHASER [35], 1DVQ from the Protein Data Bank (PDB) was used as the search model. Atomic positions of the initial model were refined by REFMAC5 [36]. Model building and ligand fitting was completed using COOT [37]. Model graphics were generated using CCP4MG [38]. Crystallographic statistics of all structures can be found in S4 Table.

For `c1ccc2c(-c3cn[nH]c3)ccnc2c1` [SFL001535, 4-(3H-pyrazol-4-yl)quinoline], which “Confirmed by X-ray” value is on record?
Its value is “Yes 9H7I”.

— article PMC12077799, “Fragment-based drug discovery for transthyretin kinetic stabilisers using a novel capillary zone electrophoresis method” (PLOS One, 2025)
